The nature of series [1]: Microsomal stability, human liver microsomes (predicted hepatic clearance). The settings on record: predicted from in vitro microsomal stability data.
The target in series [2] is GLP-1R (Homo sapiens, UniProt P43220). As to the kind of experiment: GLP-1R activation: cAMP increase in CHO cells stably expressing GLP-1R. The class given is cell-based.
[3] abbreviates: cAMP increase, CHO cells stably expressing GLP-1R, 10 point dose response, 30 minutes incubation, read-out: EC50.

A word on the EC50: it is the concentration that produces a half-maximal response.

Where two headings read alike, the source gives them in different places. Bounds are passed on as bounds.

Chain of GLP-1R (P43220 24-463): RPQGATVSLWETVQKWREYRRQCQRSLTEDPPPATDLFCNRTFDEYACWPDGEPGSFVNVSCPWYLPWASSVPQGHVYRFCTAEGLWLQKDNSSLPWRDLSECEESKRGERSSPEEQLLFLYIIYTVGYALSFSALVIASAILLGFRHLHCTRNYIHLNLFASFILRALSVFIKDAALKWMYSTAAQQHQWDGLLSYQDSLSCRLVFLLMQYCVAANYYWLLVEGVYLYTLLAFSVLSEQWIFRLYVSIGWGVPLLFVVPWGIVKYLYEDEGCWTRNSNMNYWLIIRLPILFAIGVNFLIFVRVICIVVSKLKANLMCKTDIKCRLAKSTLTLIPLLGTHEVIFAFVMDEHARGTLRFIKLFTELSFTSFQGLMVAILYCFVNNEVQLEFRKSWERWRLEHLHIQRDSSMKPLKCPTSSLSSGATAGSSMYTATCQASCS

On to `CCn1nccc1Cn1c(Cc2ccc(-c3cccc(OCc4ccc(C#N)cc4F)n3)cc2F)nc2ccc(C(=O)O)cc21` [Example 524, 2-(4-(6-((4-cyano-2-fluorobenzyl)oxy)pyridin-2-yl)-2-fluorobenzyl)-1-((l-ethyl-1H-pyrazol-5-yl)methyl)-1H-benzo[d]imidazole-6-carboxylic acid], for which the “Predicted Hepatic Clearance (Pred. Cl.)” value in series [1] is 7.17 mL/min/kg. Also, in series [2] (setting [3]), the EC50 was 66.5 nM.

Consider `CCn1cncc1Cn1c(Cc2ccc(-c3cccc(OCc4ccc(C#N)cc4F)n3)cc2F)nc2ccc(C(=O)O)cc21` [Example 525, 2-(4-(6-((4-cyano-2-fluorobenzyl)oxy)pyridin-2-yl)-2-fluorobenzyl)-1-((1-ethyl-1H-imidazol-5-yl)methyl)-1H-benzo[d]imidazole-6-carboxylic acid], for which the “Predicted Hepatic Clearance (Pred. Cl.)” value in series [1] was 2 mL/min/kg. The EC50 in series [2] (setting [3]) was found to be 0.6 nM.

As to `COCCn1c(Cc2ccc(-c3cccc(OCc4ccc(C#N)cc4F)n3)c(C#N)c2)nc2ccc(C(=O)O)cc21` [Example 526, 2-(3-cyano-4-(6-((4-cyano-2-fluorobenzyl)oxy)pyridin-2-yl)benzyl)-1-(2-methoxyethyl)-1H-benzo[d]imidazole-6-carboxylic acid], the “Predicted Hepatic Clearance (Pred. Cl.)” value in series [1] was 7.5 mL/min/kg. This molecule also yielded an EC50 in series [2] (EC50 (nM)) of 70.9 nM.

Take `CCn1cncc1Cn1c(Cc2ccc(-c3cccc(OCc4ccc(C#N)cc4F)c3)cc2F)nc2ccc(C(=O)O)cc21` [Example 527, 2-((3′-((4-cyano-2-fluorobenzyl)oxy)-3-fluoro-[1,1′-biphenyl]-4-yl)methyl)-1-((1-ethyl-1H-imidazol-5-yl)methyl)-1H-benzo[d]imidazole-6-carboxylic acid]: in series [1], the “Predicted Hepatic Clearance (Pred. Cl.)” value is 3.67 mL/min/kg. In addition, the EC50 in series [2] (setting [3]) was determined as 1.84 nM.

Turning to `N#Cc1ccc(COc2cccc(-c3ccc(Cc4nc5ccc(C(=O)O)cc5n4CC4(C(F)F)CC4)cc3F)n2)c(F)c1` [Example 528, 2-(4-(6-((4-cyano-2-fluorobenzyl)oxy)pyridin-2-yl)-3-fluorobenzyl)-1-((1-(difluoromethyl)cyclopropyl)methyl)-1H-benzo[d]imidazole-6-carboxylic acid], the “Predicted Hepatic Clearance (Pred. Cl.)” value in series [1] was 7.5 mL/min/kg. For the same molecule, the EC50 in series [2] (setting [3]) amounted to 0.45 nM.

Take `N#CCC1(Cn2c(Cc3ccc(-c4cccc(OCc5ccc(C#N)cc5F)n4)c(F)c3)nc3ccc(C(=O)O)cc32)CC1` [Example 530, 2-(4-(6-((4-cyano-2-fluorobenzyl)oxy)pyridin-2-yl)-3-fluorobenzyl)-1-((1-(cyanomethyl)cyclopropyl)methyl)-1H-benzo[d]imidazole-6-carboxylic acid]: the “Predicted Hepatic Clearance (Pred. Cl.)” value in series [1] is 10.5 mL/min/kg. The EC50 in series [2] (setting [3]) was determined as 0.43 nM.

`N#Cc1ccc(COc2cccc(-c3ccc(Cc4nc5ccc(C(=O)O)cc5n4Cc4ccccc4)c(F)c3)n2)c(F)c1` [Example 531, 1-benzyl-2-(4-(6-((4-cyano-2-fluorobenzyl)oxy)pyridin-2-yl)-2-fluorobenzyl)-1H-benzo[d]imidazole-6-carboxylic acid]: in series [1], the “Predicted Hepatic Clearance (Pred. Cl.)” value is 2.25 mL/min/kg. The EC50 in series [2] (setting [3]) is 12.8 nM.

In the case of `N#Cc1ccc(COc2cccc(-c3ccc(Cc4nc5ccc(C(=O)O)cc5n4Cc4cncnc4)c(F)c3)n2)c(F)c1` [Example 532, 2-(4-(6-((4-cyano-2-fluorobenzyl)oxy)pyridin-2-yl)-2-fluorobenzyl)-1-(pyrimidin-5-ylmethyl)-1H-benzo[d]imidazole-6-carboxylic acid], the “Predicted Hepatic Clearance (Pred. Cl.)” value in series [1] was <1.83 mL/min/kg. In addition, the EC50 in series [2] (setting [3]) was 58.6 nM.

As for `CCn1nccc1Cn1c(Cc2ccc(-c3cccc(OCc4ccc(C#N)cc4F)n3)c(F)c2)nc2ccc(C(=O)O)cc21` [Example 533, 2-(4-(6-((4-cyano-2-fluorobenzyl)oxy)pyridin-2-yl)-3-fluorobenzyl)-1-((1-ethyl-1H-pyrazol-5-yl)methyl)-1H-benzo[d]imidazole-6-carboxylic acid], the “Predicted Hepatic Clearance (Pred. Cl.)” value in series [1] is 10 mL/min/kg. Further, the EC50 in series [2] (setting [3]) is 47.1 nM.

Consider `CCc1cnccc1Cn1c(Cc2ccc(-c3cccc(OCc4ccc(C#N)cc4F)n3)c(F)c2)nc2ccc(C(=O)O)cc21` [Example 534, 2-(4-(6-((4-cyano-2-fluorobenzyl)oxy)pyridin-2-yl)-3-fluorobenzyl)-1-((3-ethylpyridin-4-yl)methyl)-1H-benzo[d]imidazole-6-carboxylic acid], for which, in series [1], the “Predicted Hepatic Clearance (Pred. Cl.)” value is 15.2 mL/min/kg. In series [2] (setting [3]), the EC50 amounted to 49.9 nM.

As for `O=C(O)c1ccc2nc(Cc3ccc(-c4cccc(OCc5ccc(Cl)cc5F)n4)c(F)c3)n(CC3(CF)CC3)c2c1` [Example 535, 2-(4-(6-((4-chloro-2-fluorobenzyl)oxy)pyridin-2-yl)-3-fluorobenzyl)-1-((1-(fluoromethyl)cyclopropyl)methyl)-1H-benzo[d]imidazole-6-carboxylic acid], the “Predicted Hepatic Clearance (Pred. Cl.)” value in series [1] was 4.17 mL/min/kg. Moreover, the EC50 in series [2] (setting [3]) is 0.66 nM.

As to `N#Cc1ccc(COc2cccc(-c3cc(F)c(Cc4nc5ccc(C(=O)O)cc5n4C[C@@H]4CCO4)cc3F)n2)cc1` [Example 536, (S)-2-(4-(6-((4-cyanobenzyl)oxy)pyridin-2-yl)-2,5-difluorobenzyl)-1-(oxetan-2-ylmethyl)-1H-benzo[d]imidazole-6-carboxylic acid], the “Predicted Hepatic Clearance (Pred. Cl.)” value in series [1] was 2.42 mL/min/kg. In addition, the EC50 in series [2] (setting [3]) is 0.04 nM.

Take `COCCn1c(Cc2c(F)cc(-c3cccc(OCc4ccc(C#N)cc4F)n3)cc2C#N)nc2ccc(C(=O)O)cc21` [Example 537, 2-(2-cyano-4-(6-((4-cyano-2-fluorobenzyl)oxy)pyridin-2-yl)-6-fluorobenzyl)-1-(2-methoxyethyl)-1H-benzo[d]imidazole-6-carboxylic acid]: in series [1], the “Predicted Hepatic Clearance (Pred. Cl.)” value is 3.3 mL/min/kg. The same molecule showed a concentration for a half-maximal effect (EC50) in series [2] (EC50 (nM)) of 6.89 nM.

Turning to `CC(=O)N1CC(F)(F)C[C@@H]1Cn1c(Cc2cc(F)c(-c3cccc(OCc4ccc(C#N)cc4F)n3)cc2F)nc2ccc(C(=O)O)cc21` [Example 539, (R)-1-((1-acetyl-4,4-difluoropyrrolidin-2-yl)methyl)-2-(4-(6-((4-cyano-2-fluorobenzyl)oxy)pyridin-2-yl)-2,5-difluorobenzyl)-1H-benzo[d]imidazole-6-carboxylic acid], the “Predicted Hepatic Clearance (Pred. Cl.)” value in series [1] is 6.33 mL/min/kg. In series [2] (read-out: EC50), the EC50 is 0.7 nM.

As to `N#Cc1ccc(COc2cccc(-c3cc(=O)n(Cc4nc5ccc(C(=O)O)cc5n4C[C@@H]4CCO4)cc3F)n2)c(F)c1` [Example 540, (S)-2-((6-((4-cyano-2-fluorobenzyl)oxy)-5′-fluoro-2′-oxo-[2,4′-bipyridin]-1′(2′H)-yl)methyl)-1-(oxetan-2-ylmethyl)-1H-benzo[d]imidazole-6-carboxylic acid], the “Predicted Hepatic Clearance (Pred. Cl.)” value in series [1] is 3.33 mL/min/kg. Also, the EC50 in series [2] (setting [3]) is 0.12 nM.

On to `COCCn1c(Cc2cc(F)c(-c3ccc(OC)c(OCc4ccc(C#N)cc4F)n3)cc2F)nc2ccc(C(=O)O)cc21` [Example 541, 2-(4-(6-((4-cyano-2-fluorobenzyl)oxy)-5-methoxypyridin-2-yl)-2,5-difluorobenzyl)-1-(2-methoxyethyl)-1H-benzo[d]imidazole-6-carboxylic acid], for which the “Predicted Hepatic Clearance (Pred. Cl.)” value in series [1] was 3.67 mL/min/kg. The EC50 in series [2] (setting [3]) was found to be 28.3 nM.

As for `COCCn1c(Cc2cc(F)c(-c3cccc(OCc4cccnc4OC(F)F)n3)cc2F)nc2ccc(C(=O)O)cc21` [Example 542, 2-(4-(6-((2-(difluoromethoxy)pyridin-3-yl)methoxy)pyridin-2-yl)-2,5-difluorobenzyl)-1-(2-methoxyethyl)-1H-benzo[d]imidazole-6-carboxylic acid], in series [1], the “Predicted Hepatic Clearance (Pred. Cl.)” value is 20 mL/min/kg. In addition, the EC50 in series [2] (setting [3]) was found to be 8.6 nM.

Regarding `[2H]C([2H])(Oc1cccc(-c2cc(F)c(Cc3nc4ccc(C(=O)O)cc4n3CCOC)cc2F)n1)c1ccc(C#N)cc1F` [Example 543, 2-(4-(6-((4-cyano-2-fluorophenyl)methoxy-d2)pyridin-2-yl)-2,5-difluorobenzyl)-1-(2-methoxyethyl)-1H-benzo[d]imidazole-6-carboxylic acid], the “Predicted Hepatic Clearance (Pred. Cl.)” value in series [1] was 4.67 mL/min/kg. Besides, the EC50 in series [2] (setting [3]) came out at 1.51 nM.

Consider `COCCn1c(Cc2cc(F)c(-c3cccc(OCc4ccc(C(F)F)cc4F)n3)cc2F)nc2ccc(C(=O)O)cc21` [Example 544, 2-(4-(6-((4-(difluoromethyl)-2-fluorobenzyl)oxy)pyridin-2-yl)-2,5-difluorobenzyl)-1-(2-methoxyethyl)-1H-benzo[d]imidazole-6-carboxylic acid], for which the “Predicted Hepatic Clearance (Pred. Cl.)” value in series [1] is 3.17 mL/min/kg. Besides, the concentration giving a half-maximal response (EC50) in series [2] (setting [3]) turned out to be 0.96 nM.

`N#Cc1ccc(COc2cccc(-c3cc(F)c(Cc4nc5ccc(C(=O)O)cc5n4[C@H]4CCCOC4)cc3F)n2)c(F)c1` [Example 545, 2-(4-(6-((4-cyano-2-fluorobenzyl)oxy)pyridin-2-yl)-2,5-difluorobenzyl)-1-(tetrahydro-2H-pyran-3-yl)-1H-benzo[d]imidazole-carboxylic acid]: in series [1], the “Predicted Hepatic Clearance (Pred. Cl.)” value is 6.67 mL/min/kg. In addition, the EC50 in series [2] (setting [3]) is 6.9 nM.

`N#Cc1ccc(COc2cccc(-c3cc(F)c(Cc4nc5ccc(C(=O)O)cc5n4CC4CCOCC4)cc3F)n2)c(F)c1` [Example 546, 2-(4-(6-((4-cyano-2-fluorobenzyl)oxy)pyridin-2-yl)-2,5-difluorobenzyl)-1-((tetrahydro-2H-pyran-4-yl)methyl)-1H-benzo[d]imidazole-carboxylic acid]: in series [1], the “Predicted Hepatic Clearance (Pred. Cl.)” value is 8.83 mL/min/kg. In addition, the EC50 in series [2] (setting [3]) came out at 0.33 nM.

In the case of `N#Cc1ccc(COc2cccc(-c3cc(F)c(Cc4nc5ccc(C(=O)O)cc5n4C4CCOCC4)cc3F)n2)c(F)c1` [Example 547, 2-(4-(6-((4-cyano-2-fluorobenzyl)oxy)pyridin-2-yl)-2,5-difluorobenzyl)-1-(tetrahydro-2H-pyran-4-yl)-1H-benzo[d]imidazole-carboxylic acid], the “Predicted Hepatic Clearance (Pred. Cl.)” value in series [1] is 7.33 mL/min/kg. Moreover, the EC50 in series [2] (setting [3]) was found to be 3.43 nM.

The record behind these values is patent publication US11702404B2, “GLP-1R modulating compounds” (priority 2019, dated 2023).
